From patent US11833204B2, “Visible light-activatable nanoparticles for cancer immunotherapy and use thereof” (KOREA INSTITUTE OF SCIENCE AND TECHNOLOGY, priority 2021, dated 2023)

How the values were obtained:
[1] = Size analysis of LT-NPs by dynamic light scattering; format: physicochemical; conditions: 1 mg/mL in saline, DLS
Experimental: The self-assembled nanoparticles (LT-NPs) prepared in Example 1 were diluted with saline to a concentration of 1 mg/mL and their particle size was analyzed by dynamic light scattering (DLS; Zetasizer Nano ZS, Malvern Instruments).

CT26 cells [2] = experiment: Apoptosis and necrosis of CT26 cells (Annexin V/PI flow cytometry); format: cell-based; conditions: CT26, visible light
Experimental: The degrees of apoptosis and necrosis of cancer cells were quantitatively analyzed to accurately evaluate the anticancer effect of the self-assembled nanoparticles (LT-NPs). First, CT26 cells treated with doxorubicin (DOX), verteporfin (VPF), a mixture of doxorubicin and verteporfin (VPF+DOX) or the self-assembled nanoparticles (LT-NPs) and a laser were prepared as above and treated with 5 μg of Annexin V-FITC and 10 μg of PI solution for 10 min. Then, cells were cultured with a cell fixative for 10 min and further cultured with DAPI for 20 min. The degrees of apoptosis and necrosis were quantitatively analyzed using a flow cytometer (BD FACSVerse, BD bioscience, USA).

CT26 cells [3] = experiment: Anticancer effect in CT26 tumor animal model; format: in vivo, mice
Experimental: […] nude mice (6 weeks old, 20-25 g, male) bred in a sterile environment were used. The mice were acclimated for 2 weeks prior to starting the experiment. The mice had ad libitum access to food and water in cages maintained at a temperature of 22±2° C. and a humidity of 40-60% on a 12 h light and dark cycle during the experiment. All experimental procedures were performed according to the guidelines of the Institutional Animal Care and Use Committee of the Korea Institute of Science and Technology.
Colon cancer was induced in the male nude mice. To this end, 1×10^6 CT26 cells were subcutaneously inoculated into the left thigh of each mouse to construct a tumor animal model. Thereafter, the tumor was allowed to grow until its volume reached ˜200-250 mm^3 prior to the experiment. For sample administration, the mice were randomly divided into 4 groups, 24 animals per group. In a control (“Con”), animals were administered intravenously PBS at a concentration of 5 mg/kg twice on days 0 and 2. In a DOX-administered group, animals were administered intravenously doxorubicin (DOX) at a concentration of 5 mg/kg twice on days 0 and 2. In a VPF(+L)-administered group, animals were administered intravenously verteporfin (VPF) at a concentration of 5 mg/kg twice on days 0 and 2 and exposed by irradiation with visible light using a 671 nm laser at 40 mW for 250 sec. In an LT-NPs(-L)-administered group, animals were administered intravenously the self-assembled nanoparticles (LT-NPs) at a concentration of 5 mg/kg twice on days 0 and 2. In an LT-NPs(+L)-administered group, animals were administered intravenously the self-assembled nanoparticles (LT-NPs) at a concentration of 5 mg/kg twice on days 0 and 2 and exposed by irradiation with visible light using a 671 nm laser at 40 mW for 250 sec.
Changes in tumor volume (maximum diameter x minimum diameter^2×0.53) in the groups were measured every 2 days for a total of 0-25 days. After 7 days, blood was harvested from each group and analyzed for HSP70, HMGB1, immunogenic apoptotic cancer cells, mature dendritic cells, activated T cells, and IFN-γ levels.
9 h after drug administration, cancer tissues were excised from each group. Each cancer tissue was sectioned to a thickness of 10 μm, washed twice with DBPS, and stained with DAPI in the dark for 15 min. The section was imaged using a Leica TCS SP8 focal microscope (Leica Microsystems GmbH).
Immune cells infiltrated into cancer cells in each group were analyzed. After 7 days, animals in each group were euthanized under anesthesia and cancer tissues were collected. Monocytes were isolated using a tumor dissociation kit (Miltenyi Biotec) according to the manufacturer's protocol. Next, the monocytes were incubated with Fc block for 5 min to avoid non-specific binding and stained with antibodies for 1 h to determine the proportions of i) immunogenic apoptotic cancer cells (CD45 and CRT staining), ii) activated T cells (CD45, CD3, and CD8 staining), and iii) mature dendritic cells (CD11c, CD40, and CD86 staining) in the cancer tissues.

[4] = after 7 days, +L, Western blotting, versus other groups

C=CC1=C(C)/C2=C/C3=NC(Cc4[nH]c(c(CCCCC(=O)OC)c4C)CC4N=C(CC1N2)C(C)=C4CCC(=O)N[C@H](Cc1ccccc1)C(=O)N[C@@H](CCCNC(=N)N)C(=O)N[C@H](CCCNC(=N)N)C(=O)NCC(=O)NC1C[C@@H](OC2C[C@](O)(C(=O)CO)Cc4c(O)c5c(c(O)c42)C(=O)c2c(OC)cccc2C5=O)O[C@@H](C)[C@H]1O)[C@@]1(C)C3=CC=C(C(=O)OC)[C@@H]1C(=O)OC (stereo partly drawn) [LT-NPs, VPF-FRRG(SEQ ID NO: 1)-DOX]
average particle diameter [1]: 87 nm
degree of apoptosis (and necrosis) (CT26 cells [2]): significantly higher than that caused by the conventional drugs
proportions of early apoptosis, late apoptosis and necrosis (CT26 cells [2]): lower proportions of late apoptosis and necrosis and a higher proportion of early apoptosis
degree of apoptosis (and necrosis) (CT26 cells [2]; listed as self-assembled nanoparticles): significantly higher apoptosis and necrosis
number of animals cured (CT26 cells [3]; 5 mg/kg i.v. days 0 and 2, +L): 3
growth of cancer cells (tumor volume) (CT26 cells [3]; 5 mg/kg i.v. days 0 and 2, +L (671 nm laser 40 mW 250 sec), versus other groups): significantly reduced
proportion of activated T cells in cancer tissues (CT26 cells [3]; after 7 days, +L): significantly higher than those in the other groups
proportion of immunogenic apoptotic cancer cells in cancer tissues (CT26 cells [3]; after 7 days, +L): significantly higher than those in the other groups
proportion of mature dendritic cells in cancer tissues (CT26 cells [3]; after 7 days, +L): significantly higher than those in the other groups
expression level of HMGB1 (CT26 cells [3]; [4]): significantly high
expression level of HSP70 (CT26 cells [3]; [4]): significantly high
degree of apoptosis in cancer cells (CT26 cells [3]; after 7 days, +L, versus other groups): significantly high
